US12427148B2, “Cancer treatment targeted to tumor adaptive responses to protein synthesis stress” (priority 2018, dated 2025)

What was measured:
[1] = tested on: Pten^fl/fl mice prostate tumors; experiment: Preclinical trial in mice with developed prostate tumors, MRI prostate volume; type: in vivo, mouse
Method: (§1) To evaluate the necessity of P-eIF2α for promoting tumor growth or maintenance in vivo, a preclinical trial was conducted. Mice with developed tumors were imaged by magnetic resonance imaging (MRI) to confirm a measurable baseline of prostate volume per mouse and then grouped into cohorts for either vehicle or ISRIB treatment daily over the course of 6 weeks.

[2] = tested on: Pten^fl/fl;Myc^Tg organoid cultures; experiment: 35S methionine incorporation (newly synthesized proteins) in organoid cultures; type: cell-based, mouse; conditions: Pten^fl/fl;Myc^Tg cells, ISRIB treatment
Method: (§2) To evaluate the effects of these key oncogenes on global protein synthesis, newly synthesized proteins were assessed by incorporation of ^35S-labeled methionine in organoid cultures. Primary mouse three-dimensional organoid cultures were established to recapitulate the cellular environment of the murine prostate gland ex vivo. Organoids were derived from dissociated mouse prostate tissue containing a mixed population of luminal and basal cell types to mimic the histology observed in vivo. Western blot analysis confirmed that Myc^Tg expression and PTEN loss were evident and associated with increased GFP expression and AKT phosphorylation. […] On the contrary, it was observed that an unanticipated but significant dampening in global protein synthesis occurred in Ptenfl/fl;MycTg mice (P=0.01), despite the fact that these mice developed more aggressive PCa (FIG. 1D).
(§3) A general UPR response may promote adaptation to proteotoxic and ER stress, whereas the activation of P-eIF2α could place a direct brake on the overwhelming burden of protein synthesis that occurs during more aggressive tumorigenesis. To test this hypothesis, the organoid cultures were employed, which recapitulate the in vivo phenotype. […]

pPCa-PDX tumor = experiment: Preclinical trial in patient-derived xenograft from primary tumor; type: in vivo, mouse
Method: (§4) FIGS. 5A, 5B, 5C, 5D, 5E, 5F, and 5G. FIGS. 5A, 5B, and 5C depict quantification of protein expression as relative mean IF intensity normalized to adjacent stromal tissue for: FIG. 5A: benign, FIG. 5B PCa, and mPCa cell types. FIG. 5D and FIG. 5E depict Kaplan-Meier tumor survival curves for mice bearing pPCa (5D) or mPCa (5E) tumors treated with ISRIB (10 mg/kg) or vehicle (n=8, per cohort; **P=0.01, log-rank test). […] FIG. 5F depicts quantification of PDX tumors treated with vehicle or ISRIB (10 mg/kg); (n=3, ***P<0.001, t test). FIG. 5G depicts quantification of newly synthesized proteins in vivo, assessed by incorporation of OP-Puro within PDX treated with ISRIB (10 mg/kg) or vehicle (n=3 to 4 per arm, mean±SEM; *P<0.05, t test). n.s., not significant. MFI, mean fluorescence intensity.
(§5) Next, it was sought to functionally evaluate whether the UPR pathway could be targeted, specifically through P-eIF2α, in advanced human PCa. Although it is historically difficult to generate human prostate patient-derived xenograft (PDX) models, this was successfully achieved with similar characteristics to the Pten^fl/fl;Myc^Tg mice to assess the effects of ISRIB on cancer growth and mortality. In particular, two PDX models were generated: one derived from a primary tumor, herein referred to as pPCa, and one derived from a lymph node metastasis in the left internal iliac chain from the same patient, herein referred to as mPCa. […] A significant increase in P-eIF2α was observed only in the mPCa (P<0.01).
(§6) To test the therapeutic efficacy of ISRIB in human PCa, a preclinical trial was performed on the stably passaged PDX model.

mCRPC PDX = experiment: Metastatic castration-resistant PCa PDX, survival and PSMA PET/CT imaging; type: in vivo, mouse
Source text: In hormone-sensitive metastatic PCa, androgen deprivation therapy (ADT) remains the mainstay treatment; however, these tumors inevitably develop resistance to ADT and progress into the lethal form of metastatic castration-resistant PCa (mCRPC). Characterization of the hormone-sensitive metastatic disease has not been predictive of outcomes in the clinical setting of lethal mCRPC. To directly study the contribution of P-eIF2α to metastasis, an additional PDX (herein mCRPC PDX) was generated derived from a patient with mCRPC despite prolonged treatment with complete androgen blockage using leuprolide (ADT) and antiandrogen therapy (enzalutamide). Three weeks after implantation of the mCRPC tumor under the mouse renal capsule, tumor dissemination to the liver, distant kidney, lymph nodes, and spleen was observed.
To examine the role of P-eIF2α from the early stages of metastatic growth to late stages of dissemination, a prostate-specific membrane antigen [^68Ga-PSMA-11 PET/computed tomography (CT)] scan was used to trace the progression of very small metastases from early to late stages of dissemination, which were not visible by conventional imaging modalities such as ^18F-DG PET/CT. Prostate-specific membrane antigen (PSMA) is highly expressed on the surface of PCa cells and allows sensitive staging to evaluate therapy response in the clinical setting. […]

PERK = PERK inhibitor as described; cited from earlier work
mPCa-PDX tumor = experiment: Preclinical trial in patient-derived xenograft from lymph node metastasis; type: in vivo, mouse
Method: as §4, §5, §6

mPCa PDX = experiment: Newly synthesized proteins in vivo by OP-Puro incorporation in PDX; set-up: species or system mouse; conditions: ISRIB 10 mg/kg
Method: as §4
(§7) Next, it was determined whether a metastatic PCa tumor, harboring high MYC and loss of PTEN activity in a complex genetic background of human PCa, relies on eIF2α phosphorylation as an adaptive response to restrain global protein synthesis. Therefore, newly synthesized proteins in vivo were assessed by measuring the incorporation of O-propargyl-puromycin (OP-Puro) within the primary and metastatic tumor-derived PDXs, which have low or high P-eIF2α, respectively. […] Within the area of intratumor ATF4 loss, apoptosis and decreased proliferation assessed by TUNEL and Ki67 staining of mPCa PDX was observed.

pPCa tumors = experiment: as above; set-up: species or system mouse; conditions: ISRIB 10 mg/kg
Method: as §4, §7

[3] = tested on: Pten^fl/fl organoid cultures; experiment: 35S methionine incorporation (newly synthesized proteins) and ATF4 expression in organoid cultures; type: cell-based, mouse; conditions: ISRIB treatment
Method: as §2, §3

[4] = tested on: Pten^fl/fl;Myc^Tg mice prostate tumors; experiment: Preclinical trial in mice with developed prostate tumors, MRI prostate volume; type: in vivo
Method: as §1

[5] = tested on: RWPE-1 shPTEN;MYC^OE cells; experiment: Apoptosis (annexin V-positive cells by flow cytometry) in engineered human prostate epithelial cells; type: cell-based; conditions: 500 nM ISRIB for 9 hours, shPTEN;MYC^OE cells relative to control samples
Method: FIGS. 4A and 4B. FIG. 4A depicts quantification of annexin V-positive cells analyzed by flow cytometry relative to control cells after treatment with DMSO or 500 nM ISRIB for 9 hours (n=3, mean±SEM) *P<0.05, t test. FIG. 4B depicts Cox proportional hazards regression results in a Forest plot of hazard ratios and 95% CI for factors associated with risk of clinical progression after surgery. Independent factors are tumor with PTEN loss/low P-eIF2α or PTEN loss/high P-eIF2α versus a reference group with normal PTEN expression; age in years; PSA in nanograms per milliliter; Gleason score>7 versus 6; and pathological stage T3-T4 versus T2 at the time of prostatectomy.
To extend these observations directly to human disease, human cell lines were created to mimic the genetic mouse models. Human RWPE-1 epithelial cells were created to stably knock down PTEN (shPTEN) with or without MYC overexpression. The combination of PTEN loss with increased MYC expression activated PERK signaling and P-eIF2α, showing that the adaptive response that we had observed in mice is also triggered in human prostate cells.

[6] = pPCa-PDX, low P-eIF2α, ISRIB treatment

With `O=C(COc1ccc(Cl)cc1)NC1CCC(NC(=O)COc2ccc(Cl)cc2)CC1` (stereo not drawn) [ISRIB] the “increase in growth over individual baseline measurements” value ([1]; by 6 weeks) was about 40%, the “tumor size by MRI” value ([1]; vehicle or daily ISRIB, 3 weeks) was “continued tumor growth” and the newly synthesized proteins [2] was “marked increase”. For the same compound, the “effectiveness of ISRIB treatment (survival)” value (pPCa-PDX tumor; pPCa tumor, ISRIB 10 mg/kg) was “short-lived”, the cell death (pPCa-PDX tumor; [6]) was “no significant cell death” and the tumor size (pPCa-PDX tumor; [6]) was “did not show regression but stabilized with eventual tumor regrowth”. The survival (mCRPC PDX; mCRPC PDX mice bearing distal metastatic lesions, P=0.01) was “significantly prolonged survival”, the “metastases at distal sites by PSMA PET/CT” value (mCRPC PDX; mCRPC PDX mice treated with ISRIB) was “substantial metastatic regression” and the IC50 (PERK) was 5 nM. For the same compound, the “cell death: TUNEL staining and cleaved caspase 3 expression” value (mPCa-PDX tumor; mPCa-PDX, after 9 days of ISRIB treatment) was “increased”, the tumor size (mPCa-PDX tumor; mPCa-PDX, after 9 days of ISRIB treatment, P<0.01) was “significant tumor regression” and the survival (mPCa-PDX tumor; mice bearing metastatic tumor with high P-eIF2α, ISRIB 10 mg/kg, P<0.01) was “significantly prolonged survival”. For the same compound, the “global protein synthesis (OP-Puro incorporation)” value (mPCa PDX) was “marked increase”, the “global protein synthesis (OP-Puro incorporation)” value (pPCa tumors) was “no change” and the ATF4 expression [3] was “decrease”. The “protein synthesis (newly synthesized proteins)” value [3] was “not altered”, the “tumor size by MRI” value ([4]; ISRIB-treated Pten^fl/fl;Myc^Tg mice, by 6 weeks) was “no progression in tumor size” and the toxicity ([4]; Pten^fl/fl;Myc^Tg mice, daily ISRIB treatment) was “no signs of toxicity”. The “tumor size by MRI” value ([4]; Pten^fl/fl;Myc^Tg mice, daily ISRIB, 3 weeks) was “tumor regression within 3 weeks”, the “immune cell infiltration (CD45)” value ([4]; after 3 weeks of ISRIB treatment, regardless of prostate tumor genotype) was “no significant changes” and the “apoptosis (annexin V-positive cells)” value [5] was “marked increase in apoptosis”.
